Experiments:
[1] = test system: inflammatory cell recruitment in the airways of OVA-sensitized and challenged BALB/c mice; experiment: 8-day murine model of airway hypereosinophilia (OVA sensitization and challenge), cell counts in BALF; format: in vivo, mouse; details: intranasal 300 nmol/kg in 10% HP-βCD; for effect on eosinophil / inflammatory cell recruitment in BALF after OVA challenge, intranasal: 2 h before each challenge
Protocol: The in vivo activity of the compounds was assessed in an 8-day model of hypereosinophilia created by immunization and challenge to ovalbumin in mice. Briefly, 9-week-old male BALB/c mice were sensitized by intraperitoneal injection of a mixture of 50 μg of ovalbumin (OVA, grade V; Sigma-Aldrich) adsorbed on aluminum hydroxide (2 mg; Sigma-Aldrich) in 0.1 ml of saline on days 0, 1, and 2. Mice were challenged intranasally with 10 μg of OVA in 25 μl of saline (12.5 μl/nostril) on days 5, 6, and 7. Control mice received intraperitoneal and intranasal administrations of saline alone. Intranasal administrations were performed under anesthesia with 50 mg/kg ketamine and 3.33 mg/kg xylazine given intraperitoneally. Food and water were supplied ad libitum. Animal experimentation was conducted with the approval of the government body that regulates animal research in France. The chalcone compounds were administered either by the intraperitoneal or intranasal routes. In a first set of experiments, mice received either chalcone 4 or carbonitrile-chalcone 4 solubilized in PBS with 10% HP-βCD (C0926, Sigma) by intranasal injection 2 h before each nasal OVA or saline challenge. In a second set of experiments, mice received CN-chalcone 4, vanillin, or parachlorobenzoylacetonitrile intranasally, in PBS with HP-βCD 10%, 2 h before each OVA or saline challenge. In the last set of experiments, mice received chalcone 4 or CN-chalcone 4 in suspension in carboxymethylcellulose 1% or solubilized in PBS with HP-βCD 10% and administered by intraperitoneal injection 2 h before each OVA or saline challenge. Collection of bronchoalveolar lavage fluid (BALF) was performed 24 h after the last OVA challenge. Mice were deeply anesthetized by intraperitoneal injection of 150 mg/kg ketamine and 10 mg/kg xylazine. A plastic canula was inserted into the trachea, and airways were lavaged by 10 instillations of 0.5 ml of ice-cold saline supplemented with 2.6 mM EDTA (saline-EDTA). Total and differential cell counts in the BALF were performed after centrifugation (300 × g for 5 min at 4 °C) to pellet cells. Erythrocytes were lysed by hypotonic shock by the addition of 1.5 ml of distilled H2O, followed by the addition of 0.5 ml of 0.6 M KCl. Cells were centrifuged and resuspended in 500 μl of ice-cold saline-EDTA, and total cell counts were determined using a hemocytometer (Neubauer's chamber). Differential cell counts were assessed on cytologic preparation obtained by cytocentrifugation (Cytospin 3, Shandon Ltd.) of 200 μl of diluted BALF (250,000 cells/ml in ice-cold saline-EDTA). Slides were stained with Hemacolor (Merck), and counts were performed on at least 400 cells for each preparation. Differential counts were expressed as absolute numbers or as a percentage of the total number of cells.
The in vivo activity of CN-chalcone 4 was assayed in a recently developed 8-day mouse model of airway hypereosinophilia ([24]). In this model, mice are sensitized by intraperitoneal injection of OVA (50 μg) adsorbed on 2 mg of aluminum hydroxide in 0.1 ml of saline on days 0, 1, and 2. Mice are then challenged intranasally with 10 μg of OVA in 25 μl of saline (12.5 μl/nostril) on days 5, 6, and 7. Drugs to be tested can be administered either systemically by the intraperitoneal route or locally by the intranasal route. The intranasal route mimics the inhalation exposure used in humans, which is the preferred and well accepted administration for inflamed airway treatment, in particular asthma. Thus, unless otherwise stated, drugs were administered intranasally in this study. Due to limited solubility of chalcone 4 (9 ± 1 μM) and CN-chalcone 4 (16 ± 2 μM) in saline buffer, drugs were dissolved in physiological solutions complemented with HP-βCD (10%, w/w). Under such conditions, chalcone 4 and CN-chalcone 4 could be dissolved at maximal concentrations reaching 690 ± 44 and 493 ± 36 μM, respectively.

CXCL12 binding to CXCR4 [2] = biological target: T1, CXCL12 binding to CXCR4 (Homo sapiens, UniProt P48061); set-up: method as in PMID 18556651; details: cited from earlier work
T1 construct: expressed in transfected cells

CXCL12 binding to CXCR4 [3] = biological target: T1, CXCL12 binding to CXCR4; experiment: FRET-based binding of CXCL12-TR to EGFP-hCXCR4 (competition); details: concentrations up to 10 μM
Protocol: FRET-based binding experiments were carried out as described ([26], [46]). Human embryonic kidney 293 cells expressing the fusion receptor EGFP-hCXCR4 were harvested in PBS (137 mM NaCl, 2.7 mM KCl, 4.3 mM Na2PO4·7H2O, 1.4 mM KH2PO4, pH 7.4) supplemented with 5 mM EDTA, pH 7.4, centrifuged, and resuspended in HEPES-bovine serum albumin (BSA) buffer (10 mM HEPES, 137.5 mM NaCl, 1.25 mM MgCl2, 1.25 mM CaCl2, 6 mM KCl, 10 mM glucose, 0.4 mM NaH2PO4, 0.1% bovine serum albumin (w/v), pH 7.4). Cells were used at a concentration of 10^6 cells/ml. Apparent affinities of the different ligands were determined by real-time fluorescence monitoring ligand-receptor interactions. […] Fluorescence emitted at 510 nm (excitation at 470 nm) was recorded at 21 °C using a Fluorolog 2 spectrofluorimeter (SPEX) and sampled every 0.3 s. Binding of CXCL12-TR to EGFP-labeled CXCR4 was detected as a reversible decline of emission at 510 nm, due to energy transfer from excited EGFP to TR. For competition experiments, the fluorescent chemokine was preincubated for 1 h at room temperature with or without various concentrations of each chalcone. Then the premix was added, and fluorescence was recorded until equilibrium was reached (300 s). Data were analyzed using Kaleidagraph 3.08 software (Synergy Software, Reading, PA).

SMILES: O=C(/C=C/c1ccccc1)c1ccccc1 [chalcone 1, reference compound]
- effect on eosinophil / inflammatory cell recruitment in BALF after OVA challenge, intranasal [1]: nor does it significantly attenuate eosinophil or any other inflammatory cell recruitment in the airways
- cell recruitment in the airways elicited by compound itself (saline-challenged mice), intranasal ([1]; no OVA challenge): does not promote any inflammatory response per se
- activity upon CXCL12 binding to CXCR4 (CXCL12 binding to CXCR4 [2]): inactive

SMILES: N#CCC(=O)c1ccc(Cl)cc1 [pCBA, para-chlorobenzoylacetonitrile]
- binding-neutralizing activity (CXCL12-TR binding to EGFP-CXCR4) (CXCL12 binding to CXCR4 [3]): Neither vanillin nor pCBA exhibits any binding-neutralizing activity
- effect on eosinophil / inflammatory cell recruitment in BALF after OVA challenge, intranasal [1]: no effect on eosinophil recruitment in the airways

SMILES: COc1cc(C=O)ccc1O [vanillin]
- binding-neutralizing activity (CXCL12-TR binding to EGFP-CXCR4) (CXCL12 binding to CXCR4 [3]): Neither vanillin nor pCBA exhibits any binding-neutralizing activity
- effect on eosinophil / inflammatory cell recruitment in BALF after OVA challenge, intranasal [1]: no effect on eosinophil recruitment in the airways

— article PMC3636874, “An Antedrug of the CXCL12 Neutraligand Blocks Experimental Allergic Asthma without Systemic Effect in Mice” (The Journal of Biological Chemistry, 2013)
